Data: patent US7223759B2, “Antibacterial 3,5-diaminopiperidine-substituted aromatic and heteroaromatic compounds” (Anadys Pharmaceuticals, Inc., priority 2003, dated 2007)

System: Escherichia coli (ATCC25922) or Staphylococcus aureus (ATCC25923)
Assay: Antibacterial MIC, microdilution method in Mueller-Hinton medium
Assay type: cell-based
Conditions: Escherichia coli, 18 h, MIC in E. coli or S. aureus; two-fold serial dilutions 64 to 0.5 μg/ml in duplicate; 18 hours of incubation at 35° C.; read-out: Potency (MIC)
Method in brief: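 Read after 18 h incubation at 35° C, MIC is the lowest compound level that blocked growth. Compounds were tested in duplicate over 64–0.5 μg/ml two-fold dilutions using Mueller-Hinton microdilution per NCCLS standard.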

MIC	Compound
< 64 µg/mL	Cl.O=C(Nc1ccccc1Cl)c1ccc(Nc2nc(N3CCCCC3)nc(N3CCCCC3)n2)cc1O [N-[4-(2-choro-phenylcarbamoyl)-3-hydroxy-phenyl]-4,6-Bis-((3R,5S)-3,5-diamino-piperidin-1-yl)-[1,3,5]triazine-2-amine]
< 16 µg/mL	N[C@@H]1C[C@H](N)CN(c2nc(Nc3ccc(C(=O)CC(=O)Nc4ccccc4Cl)cc3)nc(N3C[C@H](N)C[C@H](N)C3)n2)C1 [N-{4-[2-(2-chloro-phenylcarbamoyl)-acetyl]-phenyl}-4,6-Bis-((3R,5S)-3,5-diamino-piperidin-1-yl)-[1,3,5]triazine-2-amine]
> 64 µg/mL	COC(=O)c1ccc(Nc2nc(N3CCCCC3)nc(N3CCCCC3)n2)c(O)c1 [44-[4,6-Bis-((3R,5S)-3,5-diamino-piperidin-1-yl)-[1,3,5]triazin-2-ylamino]-3-hydroxy-benzoic acidmethyl ester]
> 64 µg/mL	Cl.Nc1nc(N2C[C@H](N)C[C@H](N)C2)nc(N2C[C@H](N)C[C@H](N)C2)n1 [4,6-Bis-((3R,5S)-3,5-diamino-piperidin-1-yl)-[1,3,5]triazin-2-ylamine]
< 16 µg/mL	CCOc1ccc(C(=O)Nc2ccc(Nc3nc(N4CCCCC4)nc(N4CCCCC4)n3)cc2O)cc1.Cl [N-[4-(4-ethoxy-benzoylamino)-3-hydroxy-phenyl]-4,6-Bis-((3R,5S)-3,5-diamino-piperidin-1-yl)-1,3,5]triazine-2-amine]
> 64 µg/mL	NC1CCN(c2nc(N3C[C@H](N)C[C@H](N)C3)nc(N3C[C@H](N)C[C@H](N)C3)n2)CC1 [1-(4,6-Bis-((3R,5S)-3,5-diamino-piperidin-1-yl)-[1,3,5]triazin-2-yl)-piperidine-3-carboxylic aciddiethylamide]
> 64 µg/mL	N[C@@H]1C[C@H](N)CN(c2nc(Nc3ccc(O)cc3)nc(N3C[C@H](N)C[C@H](N)C3)n2)C1 [N-(4-hydroxy-phenyl)-4,6-Bis-((3R,5S)-3,5-diamino-piperidin-1-yl)-[1,3,5]triazine-2-amine]
> 64 µg/mL	Cl.N[C@@H]1C[C@H](N)CN(c2nc(Nc3ccccc3F)nc(N3C[C@H](N)C[C@H](N)C3)n2)C1 [N-(2-fluoro-phenyl)-4,6-Bis-((3R,5S)-3,5-diamino-piperidin-1-yl)-[1,3,5]triazine-2-amine]
< 64 µg/mL	Cc1ccc(S(=O)(=O)N(Cc2ccccc2)c2ccc(Nc3nc(NCCCn4ccnc4)nc(N4C[C@H](N)C[C@H](N)C4)n3)cc2O)cc1 [N-Benzyl-N-{4-[4-((3R,5S)-3,5-diamino-piperidin-1-yl)-6-(3-imidazol-1-yl-propylamino)-[1,3,5]triazin-2-ylamino]-2-hydroxy-phenyl}-4-methyl-benzenesulfonamide]
< 64 µg/mL	Cc1cc(Nc2nc(N3CCCCC3)nc(N3CCCCC3)n2)ccc1N1C(=O)c2ccc(Cl)cc2C1=O.Cl [N-[4-(5-chloro-1,3-dioxo-1,3-dihydro-isoindol-22-yl)-3-methyl-phenyl]-4,6-Bis-((3R,5S)-3,5-diamino-piperidin-1-yl)-[1,3,5]triazine-2-amine]
< 16 µg/mL	Cl.O=C(Nc1ccc(O)cc1)c1ccc(Nc2nc(N3CCCCC3)nc(N3CCCCC3)n2)cc1O [N-[3-hydroxy-4-(4-hydroxy-phenylcarbamoyl)-phenyl]-4,6-Bis((3R,5S)-3,5-0diamino-piperidin-1-yl)-[1,3,5]triazine-2-amine]

Same assay, conditions: Escherichia coli, 18 h, read-out: Potency (MIC)

Compound	MIC
Cc1ccc(C(=O)Nc2cccc(Nc3nc(N4C[C@H](N)C[C@H](N)C4)nc(N4C[C@H](N)C[C@H](N)C4)n3)c2)c(O)c1 [N-[3-(2-hydroxy-4-methyl-benzoylamino)-phenyl]-4,6-Bis-((3R,5S)-3,5-diamino-piperidin-1-yl)-[1,3,5]triazine-2-amine]	< 64 µg/mL
Cc1ccc(C(=O)Nc2ccc(Nc3nc(N4C[C@H](N)C[C@H](N)C4)nc(N4C[C@H](N)C[C@H](N)C4)n3)cc2C)c(O)c1 [N-[4-(2-hydroxy-4-methyl-benzoylamino)-3-methyl-phenyl]-4,6-Bis-((3R,5S)-3,5-diamino-piperidin-1-yl)-[1,3,5]triazine-2-amine]	< 64 µg/mL
COc1ccccc1C(=O)Nc1ccc(Nc2nc(N3C[C@H](N)C[C@H](N)C3)nc(N3C[C@H](N)C[C@H](N)C3)n2)cc1O [N-[3-hydroxy-4-(2-methoxy-benzoylamino)-phenyl]-4,6-Bis-((3R,5S)-3,5-diamino-piperidin-1-yl)-[1,3,5]triazine-2-amine]	< 16 µg/mL
Cc1cc(=O)oc2cc(Nc3nc(N4C[C@H](N)C[C@H](N)C4)nc(N4C[C@H](O)C[C@@H](O)C4)n3)ccc12 [7-[4-((3R,5S)-3,5-Diamino-piperidin-1-yl)-6-((3R,5R)-3,5-dihydroxy-piperidin-1-yl)-[1,3,5]triazin-2-ylamino]-4-methyl-chromen-2-one]	> 64 µg/mL
N[C@@H]1C[C@H](N)CN(c2nc(NNc3cccc(F)c3)nc(N3C[C@H](N)C[C@H](N)C3)n2)C1 [N-(4,6-Bis-((3R,5S)-3,5-diamino-piperidin-1-yl)-[1,3,5]triazin-2-yl)-N′-(3-Fluoro-phenyl)-hydrazine]	> 64 µg/mL
N[C@@H]1C[C@H](N)CN(c2nc(Nc3ccc(NC(=O)c4cc(Cl)cnc4O)cc3)nc(N3C[C@H](N)C[C@H](N)C3)n2)C1 [N-{4-[(5-chloro-2-hydroxy-pyridine-3-carbonyl)-amino]-phenyl}-4,6-Bis-((3R,5S)-3,5-diamino-piperidin-1-yl)-[1,3,5]triazine-2-amine]	< 64 µg/mL
N[C@@H]1C[C@H](N)CN(c2nc(Nc3ccc(NC(=O)c4ccc(Cl)cc4)c(O)c3)nc(N3C[C@@H](N)C[C@H]3CO)n2)C1 [N-{4-[4-((2S,4S)-4-Amino-2-hydroxymethyl-pyrrolidin-1-yl)-6-((3R,5S)-3,5-diamino-piperidin-1-yl)-[1,3,5]triazin-2-ylamino]-2-hydroxy-phenyl}-4-chloro-benzamide]	< 64 µg/mL
N[C@@H]1C[C@H](N)CN(c2nc(Nc3ccc(C(=O)Nc4cccc(OC(F)(F)F)c4)c(O)c3)nc(N3C[C@H](N)C[C@H](N)C3)n2)C1 [N-[3-hydroxy-4-(3-trifluoromethoxy-phenylcarbamoyl)-phenyl]-4,6-Bis-((3R,5S)-3,5-diamino-piperidin-1-yl)-[1,3,5]triazine-2-amine]	< 16 µg/mL
NC[C@@H]1C[C@H](N)CN1c1nc(Nc2ccc(NC(=O)c3ccc(O)cc3O)c(O)c2)nc(N2C[C@H](N)C[C@H](N)C2)n1 [N-{4-[4-((2S,4S)-4-Amino-2-aminomethyl-pyrrolidin-1-yl)-6-((3R,5S)-3,5-diamino-piperidin-1-yl)-[1,3,5]triazin-2-ylamino]-2-hydroxy-phenyl}-2,4-dihydroxy-benzamide]	< 16 µg/mL
Cc1ccc(S(=O)(=O)Nc2ccccc2Nc2nc(N3C[C@H](N)C[C@H](N)C3)nc(N3C[C@H](N)C[C@H](N)C3)n2)cc1 [N-[2-(toluene-4-sulfonylamino)-phenyl]-4,6-Bis-((3R,5S)-3,5-diamino-piperidin-1-yl)-[1,3,5]triazine-2-amine]	> 64 µg/mL
N[C@@H]1C[C@H](N)CN(c2nc(Nc3ccc(NC(=O)c4ccc5ccccc5c4O)cc3)nc(N3CCC[C@@H](O)C3)n2)C1 [1-Hydroxy-naphthalene-2-carboxylicacid {4-[4-((3S,5R)-3,5-diamino-piperidin-1-yl)-6-((R)-3-hydroxy-piperidin-1-yl)-[1,3,5]triazin-2-ylamino]-phenyl}-amide]	< 64 µg/mL
COc1nc(Nc2ccc(C(C)=O)cc2)nc(N2C[C@H](N)C[C@H](N)C2)n1 [1-{4-[4-((3R,5S)-3,5-Diamino-piperidin-1-yl)-6-methoxy-[1,3,5]triazin-2-ylamino]-phenyl}-ethanone]	> 64 µg/mL
N[C@@H]1C[C@H](N)CN(c2ncnc(Nc3ccc(NC(=O)c4ccc5ccccc5c4O)cc3)n2)C1 [1-Hydroxy-naphthalene-2-carboxylicacid {4-[4-((3S,5R)-3,5-diamino-piperidin-1-yl)-[1,3,5]triazin-2-ylamino]-phenyl}-amide]	< 16 µg/mL
NCCN(CCN)c1nc(Nc2ccc(NC(=O)c3ccc(Cl)cc3)c(O)c2)nc(N2C[C@H](N)C[C@H](N)C2)n1 [N-{4-[4-[Bis-(2-amino-ethyl)-amino]-6-((3R,5S)-3,5-diamino-piperidin-1-yl)-[1,3,5]triazin-2-ylamino]-2-hydroxy-phenyl}-4-chloro-benzamide]	< 64 µg/mL
Cc1cccc(C(=O)Nc2ccc(Nc3nc(N4C[C@H](N)C[C@H](N)C4)nc(N4C[C@H](N)C[C@H](N)C4)n3)cc2O)c1O [N-[3-hydroxy-4-(2-hydroxy-3-methyl-benzoylamino)-phenyl]-4,6-Bis-((3R,5S)-3,5-diamino-piperidin-1-yl)-[1,3,5]triazine-2-amine]	< 16 µg/mL
N[C@@H]1C[C@H](N)CN(c2nc(Nc3ccc4c(c3)-c3ccccc3C4=O)nc(N3C[C@H](N)C[C@H](N)C3)n2)C1 [N-(9-oxo-9H-fluoren-3-yl)-4,6-Bis-((3R,5S)-3,5-diamino-piperidin-1-yl)-[1,3,5]triazine-2-amine]	< 16 µg/mL
N[C@@H]1C[C@H](N)CN(c2nc(Nc3ccc4c(c3)-c3ccccc3C4=O)nc(N3C[C@@H](N)C[C@@H](O)C3)n2)C1 [3-[4-((3S,5R)-3-Amino-5-hydroxy-piperidin-1-yl)-6-((3S,5R)-3,5-diamino-piperidin-1-yl)-[1,3,5]triazin-2-ylamino]-fluoren-9-one]	< 16 µg/mL

Same assay, conditions: MIC in E. coli or S. aureus; two-fold serial dilutions 64 to 0.5 μg/ml in duplicate; 18 hours of incubation at 35° C.

Compound	Potency (MIC)
N-(4-thioureido-iminomethyl-phenyl)-4,6-Bis-((3R,5S)-3,5-diamino-piperidin-1-yl)-[1,3,5]triazine-2-amine	+ (+ means MIC<64 μg/ml in E. coli or S. aureus)
CC(=O)c1ccc(Nc2nc(N3C[C@H](N)C[C@H](N)C3)nc(N3C[C@H](CN)C[C@H](CN)C3)n2)cc1 [1-{4-[4-((3S,5R)-3,5-Bis-(aminomethyl)-piperidin-1-tl)-6-((3R,5S)-3,5-diamino-piperidin-1-l)-[1,3,5]triazin-2-ylamino]-phenyl}-ethanone]	− (− means MIC>64 μg/ml in E. coli or S. aureus)
